This passage reports IC50 results from BindingDB's records for doi:10.1016/j.bioorg.2015.05.007 (Silesian University of Technology, 2015).

Broadly, the IC50 is the concentration that inhibits the measured activity by half. A high value points to weaker potency.

The target of this assay is T1, Chitin synthase 3 (Saccharomyces cerevisiae (strain ATCC 204508 / S288c), UniProt P29465).
T1 sequence (P29465 whole entry): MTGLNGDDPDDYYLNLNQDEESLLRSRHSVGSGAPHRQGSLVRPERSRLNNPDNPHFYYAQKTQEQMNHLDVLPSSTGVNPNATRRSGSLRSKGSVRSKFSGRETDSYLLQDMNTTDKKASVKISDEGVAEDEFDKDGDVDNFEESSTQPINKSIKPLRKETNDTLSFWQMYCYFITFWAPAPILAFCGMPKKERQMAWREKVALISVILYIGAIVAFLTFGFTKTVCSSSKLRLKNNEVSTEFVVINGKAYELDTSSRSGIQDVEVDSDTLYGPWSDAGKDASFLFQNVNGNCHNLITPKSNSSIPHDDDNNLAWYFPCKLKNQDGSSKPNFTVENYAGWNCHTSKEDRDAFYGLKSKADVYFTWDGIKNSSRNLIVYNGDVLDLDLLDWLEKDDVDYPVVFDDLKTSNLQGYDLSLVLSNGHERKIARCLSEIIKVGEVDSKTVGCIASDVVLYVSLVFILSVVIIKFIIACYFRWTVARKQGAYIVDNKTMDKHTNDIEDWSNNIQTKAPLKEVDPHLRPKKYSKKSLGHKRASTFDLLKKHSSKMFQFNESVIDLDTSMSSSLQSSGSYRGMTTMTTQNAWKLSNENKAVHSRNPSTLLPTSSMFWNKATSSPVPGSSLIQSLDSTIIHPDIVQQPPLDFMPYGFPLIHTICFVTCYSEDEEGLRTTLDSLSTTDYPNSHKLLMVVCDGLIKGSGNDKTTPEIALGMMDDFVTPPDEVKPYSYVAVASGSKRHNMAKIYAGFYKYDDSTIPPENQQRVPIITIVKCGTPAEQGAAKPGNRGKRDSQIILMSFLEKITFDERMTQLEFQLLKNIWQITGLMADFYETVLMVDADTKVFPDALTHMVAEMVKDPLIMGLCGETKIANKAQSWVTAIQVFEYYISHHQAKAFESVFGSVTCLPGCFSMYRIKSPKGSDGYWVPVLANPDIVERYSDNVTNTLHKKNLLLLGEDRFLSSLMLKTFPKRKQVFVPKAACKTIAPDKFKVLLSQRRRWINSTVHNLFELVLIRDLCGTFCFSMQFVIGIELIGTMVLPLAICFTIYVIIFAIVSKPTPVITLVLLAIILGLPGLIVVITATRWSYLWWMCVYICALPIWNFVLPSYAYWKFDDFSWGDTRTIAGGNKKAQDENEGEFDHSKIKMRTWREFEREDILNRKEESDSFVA
Nature of the assay: Chitin Synthase Assays. Conditions: pH 7.5; 25 °C. As for the experimental part:
Assays were performed in 96-wells microtiter plate with flat bottom. To each well of the plate, 100 µL of WGA solution was added at 50 µg/mL. After incubation at room temperature for at least 16 h the WGA solution was removed by triple washing with distill water. Wells were then blocked by adding 300 µL of BSA blocking buffer (20 mg/mL, 50 mM Tris-HCl, pH 7.5) and incubated for 3 h at room temperature. Microtiter plates were stored until use at -20 °C in blocking buffer. Before usage plates were thawed at 25 °C and thoroughly emptied. The standard reaction mixture in total volume 100 µL contains: UDP-GlcNAc (2.0 mM), GlcNAc (40 mM), MgCl2 (5.0 mM) and digitonin (0.1% w/v) dissolved in pH 7.5 Tris-HCl buffer (50 mM) containing test compounds at a range of concentrations from 0 mM (control) to 3.0 mM. The enzymatic reactions were started by the addition of 0.2 mg/mL solution of trypsin (1-10 µL) and membrane preparation (5-20 µL). Usually four different concentrations of trypsin were te

`COC(=O)CCC(=O)NC[C@H]1O[C@@H](n2ccc(=O)[nH]c2=O)[C@@H](O)C1O` (some centres not stated) [5'-(N-succinyl)-5'-amino-5'-deoxyuridine methyl ester (7)] yielded an IC50 of 800 µM.
Then `O=C(CCC(=O)NCC(=O)NC[C@H]1O[C@@H](n2ccc(=O)[nH]c2=O)[C@@H](O)C1O)NCC(=O)NC[C@H]1O[C@@H](n2ccc(=O)[nH]c2=O)[C@@H](O)C1O` (some centres not stated) [Dimer 15 (15)], with 3000 µM.
